# Entries after “also recorded” stand apart in the source; their conditions may differ.
# Columns and labels:
# [1] = Pharmacokinetic study in mice; format: in vivo; details: WT mice, 50 mg/kg by gavage, serum, FIG. 11
# Description: Pharmacokinetic Study in Mice.
# Blood was collected at 0, 0.25, 0.5, 1, 2, 4, 8, 12, 24 h after treatment. The concentration of target compound in serum was analyzed by UPLC-QTOFMS.
# ABCG2 = biological target: T1, ABCG2 (Homo sapiens, UniProt Q9UNQ0); assay: Protoporphyrin IX (PPIX)-based ABCG2 inhibition assay using the A549 cancer cell line; details: read-out: IC50, the half maximal inhibitory concentration
# T1 construct: developed using the A549 cancer cell line; endogenous in cells; host or cells: A549 cancer cell line
# T1 sequence (Q9UNQ0 1-655): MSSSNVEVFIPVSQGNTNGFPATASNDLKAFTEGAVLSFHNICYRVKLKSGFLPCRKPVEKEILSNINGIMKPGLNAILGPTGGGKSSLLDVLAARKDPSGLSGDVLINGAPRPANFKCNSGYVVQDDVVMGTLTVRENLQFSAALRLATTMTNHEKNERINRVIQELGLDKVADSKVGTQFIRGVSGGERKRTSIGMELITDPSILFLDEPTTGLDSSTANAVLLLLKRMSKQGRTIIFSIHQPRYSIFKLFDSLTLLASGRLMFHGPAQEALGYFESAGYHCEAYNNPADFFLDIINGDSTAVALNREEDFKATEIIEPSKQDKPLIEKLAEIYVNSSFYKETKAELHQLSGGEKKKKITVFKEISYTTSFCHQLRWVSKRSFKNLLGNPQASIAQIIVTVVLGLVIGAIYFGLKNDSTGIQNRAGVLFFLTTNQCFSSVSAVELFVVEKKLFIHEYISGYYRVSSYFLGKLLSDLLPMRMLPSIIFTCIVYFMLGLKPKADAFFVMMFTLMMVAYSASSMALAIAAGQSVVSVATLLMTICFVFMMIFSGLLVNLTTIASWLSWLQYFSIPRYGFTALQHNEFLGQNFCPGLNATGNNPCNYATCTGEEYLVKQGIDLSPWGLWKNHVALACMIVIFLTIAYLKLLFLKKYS
# Text: A Protoporphyrin IX(PPIX)-based ABCG2 inhibition assay was developed using the A549 cancer cell line.
# [2] = Metabolic stability assay, incubation with human liver microsomes (HLM); format: in vitro ADME; details: remaining parent compound
# Description: Metabolic Stability Assay.
# After the incubation (0-60 min), the remaining parent compounds were analyzed by UPLC-QTOFMS.
# Fech-mut mice = assay: Efficacy against EPP-associated phototoxicity in vivo (Fech-mut mouse model)
# Description: Efficacy of ABCG2 Inhibitors Against EPP-Associated Phototoxicity In Vivo.
# The Fech-mut mouse model was used as an EPP model to determine the efficacy of ABCG2 inhibitors against EPP-associated phototoxicity, the most common symptom in EPP patients (6-8). […] After 5 days' treatment, all mice were sacrificed for evaluation of skin damage.
# Thirty minutes after treatment, the mice were exposed to UV light for 30 minutes. The same treatment (drug plus light exposure) was repeated once daily for 4 days. From the 5th day, drug treatment was stopped, but the light exposure was continued for 4 more days. The gross appearance of mouse skin was recorded every day. On the 9th day, all mice were sacrificed and the back skin was collected for evaluation of phototoxicity.
# RBCs of Fech-mut mice = assay: Effect on PPIX efflux from RBCs; format: cell-based; details: 10 μM, FIG. 14
# Text: Effects of ABCG2 Inhibitors on PPIX Efflux from RBCs.
# PPIX in RBCs and culture medium was extracted, respectively, and analyzed by UPLC-QTOFMS.
# WT and Abcg2-null mice = assay: Chemically-induced PPIX accumulation and hepatotoxicity in WT and Abcg2-null mice; details: DDC 0.1% or GSF 2.5% in diet, two weeks
# Description: Animal Studies to Determine the Role of ABCG2 in Chemically-Induced PPIX Accumulation and Hepatotoxicity
# WT and Abcg2-null mice were treated with DDC (0.1% in diet) or GSF (2.5% in diet) for two weeks. In addition, hPXR and hPXR/Abcg2-null mice were treated with RIF (100 mg/Kg diet) and INH (400 mg/L drinking water) for four weeks. After the treatment, blood and liver samples were collected for evaluation of liver injury and analysis of PPIX.
# Liver injury was evaluated by analyzing serum alanine aminotransaminase (ALT), aspartate aminotransferase (AST), alkaline phosphatase (ALP) (Pointe Scientific Canton, MI), and total bilirubin (Sigma-Aldrich, St. Louis, MO). These liver injury biomarkers were analyzed according to the standard procedures provided by the manufacturers. Blood toxicity was evaluated by analyzing mean corpuscular hemoglobin (MCH) (HESKA HemaTrue; Loveland, CO) and total hemoglobin (tHb) (AVOXimeter 4000; Edison, NJ).
# Liver and skin tissues were first fixed in 4% formaldehyde phosphate solution overnight and then dehydrated and embedded in paraffin. […] sections were cut and stained. For hematoxylin and eosin (H&E) staining, tissue sections were stained in hematoxylin solution for 5 min, washed with tap water for 1 min, and then differentiated in 1% acetic acid solution for 1 min and followed by staining in eosin solution for 1 min. For Sirius Red Staining, tissue sections were stained in 0.1% PicroSirius Red solution for 1 h, and then washed with 1% acetic acid solution twice.
# carboxylesterase 1 = biological target: T2, carboxylesterase 1 (Homo sapiens, UniProt P23141); assay: Hydrolysis of tert-butyl ester group by carboxylesterase 1; format: in vitro ADME
# T2 sequence (P23141 18-567): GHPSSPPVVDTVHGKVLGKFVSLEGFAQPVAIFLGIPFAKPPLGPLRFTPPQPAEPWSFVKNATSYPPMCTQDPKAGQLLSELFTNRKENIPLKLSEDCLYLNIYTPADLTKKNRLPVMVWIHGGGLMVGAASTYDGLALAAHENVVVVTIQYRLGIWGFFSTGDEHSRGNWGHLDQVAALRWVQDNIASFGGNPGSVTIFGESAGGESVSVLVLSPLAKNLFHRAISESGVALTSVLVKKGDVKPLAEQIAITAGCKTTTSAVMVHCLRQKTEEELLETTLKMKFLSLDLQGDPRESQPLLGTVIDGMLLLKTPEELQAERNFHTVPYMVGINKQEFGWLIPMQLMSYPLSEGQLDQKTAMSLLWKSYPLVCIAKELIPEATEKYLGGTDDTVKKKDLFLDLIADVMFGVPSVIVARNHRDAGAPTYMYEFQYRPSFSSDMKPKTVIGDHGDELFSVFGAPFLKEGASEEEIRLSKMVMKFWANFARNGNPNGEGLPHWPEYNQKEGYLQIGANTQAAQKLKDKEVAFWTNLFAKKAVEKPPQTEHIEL
# [3] = read-out: CC50, the 50% cytotoxic concentration, MTT assay
Structure (SMILES),IC50 (ABCG2),HLM stability (% vs 0 min) 30 min [2],HLM stability (% vs 0 min) 60 min [2],CC50 (MTT cytotoxicity assay; [3]),other results
"COc1ccc2c3c([nH]c2c1)[C@H](CC(C)C)N1C(=O)[C@H](CCC(=O)NC(C)(C)C)NC(=O)[C@@H]1C3 [Compound K2, N-(tert-butyl)-3-((3S,6S,12aS)-6-isobutyl-9-methoxy-1,4-dioxo-1,2,3,4,6,7,12,12a-octahydropyrazino[1′,2′:1,6]pyrido[3,4-b]indol-3-yl)propanamide]",,,,,pharmacokinetic profile [1]: better pharmacokinetic profiles than KO143
"COc1ccc2c3c([nH]c2c1)[C@H](CC(C)C)N1C(=O)[C@H](CCCOC(C)(C)C)NC(=O)[C@@H]1C3 [Compound K7, (3S,6S,12aS)-3-(3-(tert-butoxy)propyl)-6-isobutyl-9-methoxy-2,3,12,12a-tetrahydropyrazino[1′,2′:1,6]pyrido[3,4-b]indole-1,4(6H,7H)-dione]",0.09 µM,16%,9%,,CC50 (in vitro): > 100 µM
"COc1ccc2c3c([nH]c2c1)[C@H](CC(C)C)N1C(=O)[C@H](CCC(=O)NC(C)C)NC(=O)[C@@H]1C3 [Compound K34, 3-((3S,6S,12aS)-6-isobutyl-9-methoxy-1,4-dioxo-1,2,3,4,6,7,12,12a-octahydropyrazino[1′,2′:1,6]pyrido[3,4-b]indol-3-yl)-N-isopropylpropanamide]",,,,,pharmacokinetic profile [1]: better pharmacokinetic profiles than KO143
"CCOC(=O)C1=C(C)NC(C)=C(C(=O)OCC)C1C [DDC, 3,5-diethoxycarbonyl-1,4-dihydrocollidine]",,,,,"liver damage, PPIX accumulation, bile plugs (WT and Abcg2-null mice; Abcg2-null mice): these effects failed to occur; liver damage, PPIX accumulation, bile plugs (WT and Abcg2-null mice; WT mice): caused liver damage, PPIX accumulation, and bile plugs"
"COC1=CC(=O)C[C@@H](C)[C@]12Oc1c(Cl)c(OC)cc(OC)c1C2=O [GSF, griseofulvin]",,,,,"liver damage, PPIX accumulation, bile plugs (WT and Abcg2-null mice; Abcg2-null mice): these effects failed to occur; liver damage, PPIX accumulation, bile plugs (WT and Abcg2-null mice; WT mice): caused liver damage, PPIX accumulation, and bile plugs"
"COc1ccc2c3c([nH]c2c1)[C@H](CC(C)C)N1C(=O)[C@H](CCC(=O)OC(C)(C)C)NC(=O)[C@@H]1C3 [KO143, reference compound]",,,,,stability (hydrolysis of tert-butyl ester group) (carboxylesterase 1): very unstable; pharmacokinetic profile [1]: poor oral pharmacokinetic profile

# More lines, main results first:
IC50 (ABCG2),HLM stability (% vs 0 min) 30 min [2],HLM stability (% vs 0 min) 60 min [2],Structure (SMILES),CC50 (MTT cytotoxicity assay; [3]),other results
0.18 µM,74%,60%,"COc1ccc2c3c([nH]c2c1)[C@H](CC(C)C)N1C(=O)[C@H](CC(=O)NC(C)(C)C)NC(=O)[C@@H]1C3 [Compound K3, N-(tert-butyl)-2-((3S,6S,12aS)-6-isobutyl-9-methoxy-1,4-dioxo-1,2,3,4,6,7,12,12a-octahydropyrazino[1′,2′:1,6]pyrido[3,4-b]indol-3-yl)acetamide]",58.9 µM,
,7%,7%,"COc1ccc2c3c([nH]c2c1)[C@H](CC(C)C)N1C(=O)[C@H](CCCCNC(=O)C(C)(C)C)N(C(=O)C(C)(C)C)C(=O)[C@@H]1C3 [Compound K11, N-(4-((3S,6S,12aS)-6-isobutyl-9-methoxy-1,4-dioxo-2-pivaloyl-1,2,3,4,6,7,12,12a-octahydropyrazino[1′,2′:1,6]pyrido[3,4-b]indol-3-yl)butyl)pivalamide]",,CC50 (MTT cytotoxicity assay): 39.6 µM
0.13 µM,45%,26%,"COc1ccc2c3c([nH]c2c1)[C@H](CC(C)C)N1C(=O)[C@H](CC(=O)NC2CCCCC2)NC(=O)[C@@H]1C3 [Compound K23, N-cyclohexyl-2-((3S,6S,12aS)-6-isobutyl-9-methoxy-1,4-dioxo-1,2,3,4,6,7,12,12a-octahydropyrazino[1′,2′:1,6]pyrido[3,4-b]indol-3-yl)acetamide]",46.6 µM,
3.14 µM,,,"COc1ccc2c3c([nH]c2c1)[C@H](CC(C)C)N1C(=O)[C@H](CC(=O)N2CCCCC2)NC(=O)[C@@H]1C3 [Compound K25, (3S,6S,12aS)-6-isobutyl-9-methoxy-3-(2-oxo-2-(piperidin-1-yl)ethyl)-2,3,12,12a-tetrahydropyrazino[1′,2′:1,6]pyrido[3,4-b]indole-1,4(6H,7H)-dione]",26.5 µM,
0.27 µM,65%,49%,"COc1ccc2c3c([nH]c2c1)[C@H](CC(C)C)N1C(=O)[C@H](CC(=O)NC(C)C)NC(=O)[C@@H]1C3 [Compound K31, 2-((3S,6S,12aS)-6-isobutyl-9-methoxy-1,4-dioxo-1,2,3,4,6,7,12,12a-octahydropyrazino[1′,2′:1,6]pyrido[3,4-b]indol-3-yl)-N-isopropylacetamide]",> 100 µM,"protection from phototoxicity in EPP mouse model (Fech-mut mice; Fech-mut mice pretreated 30 min, then UV light (395-410 nm) 30 min, 5 days, FIG. 12): fully protected the EPP mice from phototoxicity; phototoxicity after withdrawal (withdrawal test) (Fech-mut mice; Fech-mut mice, 100 mg/kg po plus light day 1 to 4, light only from day 5, FIG. 13): showed phototoxicity soon after the withdrawal of K31; pharmacokinetic profile ([1]; 50 mg/kg): better pharmacokinetic profiles than KO143; also recorded: ideal pharmacokinetic profile; PPIX efflux from RBCs (RBCs of Fech-mut mice): significantly inhibited PPIX efflux from RBCs"
0.25 µM,37%,18%,"COc1ccc2c3c([nH]c2c1)[C@H](CC(C)C)N1C(=O)[C@H](CC(=O)NCc2ccccc2)NC(=O)[C@@H]1C3 [Compound K33, N-benzyl-2-((3S,6S,12aS)-6-isobutyl-9-methoxy-1,4-dioxo-1,2,3,4,6,7,12,12a-octahydropyrazino[1′,2′:1,6]pyrido[3,4-b]indol-3-yl)acetamide]",31.1 µM,

# From patent US12528808B2, “Therapy for erythropoietic protoporphyria (EPP) and X-linked protoporphyria (XLP)” (UNIVERSITY OF PITTSBURGH-OF THE COMMONWEALTH SYSTEM OF …, priority 2019, dated 2026)
